{"source": "patent US8318781B2", "about": "“G-protein-conjugated receptor agonist” (Japan Science and Technology Agency, priority 2007, dated 2012)", "target": "T1, human GPR120 (hGPR120) (Homo sapiens, UniProt Q5NUL3)", "T1 construct": "expressed in transfected cells; doxycycline-inducible expression vector", "T1 sequence (Q5NUL3 1-361)": "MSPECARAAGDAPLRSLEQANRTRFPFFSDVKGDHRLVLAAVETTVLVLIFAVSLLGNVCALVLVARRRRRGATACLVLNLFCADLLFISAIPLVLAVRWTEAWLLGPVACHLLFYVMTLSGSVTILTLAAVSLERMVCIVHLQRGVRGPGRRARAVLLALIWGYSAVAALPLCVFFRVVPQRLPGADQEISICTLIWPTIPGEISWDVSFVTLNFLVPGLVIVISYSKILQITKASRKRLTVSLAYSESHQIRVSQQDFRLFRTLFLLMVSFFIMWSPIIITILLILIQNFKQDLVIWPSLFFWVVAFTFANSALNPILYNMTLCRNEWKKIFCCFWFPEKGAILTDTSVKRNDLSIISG", "test": "ERK assay, screening for GPR120 ligands in cell line TXGPR120;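 on ERK/GPR120 10 μM: signals normalized between DMSO and PMA controls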", "assay_type": "cell-based", "settings": "for selectivity for GPR120 in ERK assay (in words): GPR120 versus GPR40; for ERK activation for GPR120 (in words) / ERK/GPR120 10 μM / ERK/GPR120 100 μM: TXGPR120 cells; for ERK activation for GPR120 (in words): FIGS. 5-8; for ERK/GPR120 10 μM: ligand 10 μM; for ERK/GPR120 10 μM / ERK/GPR120 100 μM: class relative to LA; for ERK/GPR120 100 μM: ligand 100 μM", "data": [{"molecule": "O=C(O)CCCc1ccc(OCCN(c2ccccc2)c2nccs2)cc1", "note": "[NCG46]", "values": [{"measurement": "selectivity for GPR120 in ERK assay (in words)", "result": "selective for GRP120"}, {"measurement": "ERK activation for GPR120 (in words)", "result": "strongly activate ERK"}, {"measurement": "ERK/GPR120 10 μM", "result": "+++ (+++ denotes a higher value than LA)"}, {"measurement": "ERK/GPR120 100 μM", "result": "+++ (+++ denotes a higher value than LA)"}]}, {"molecule": "CN(C)c1ccc(N(CCOc2ccc(CCCC(=O)O)cc2)c2ccccn2)cc1", "note": "[NCG54]", "values": [{"measurement": "selectivity for GPR120 in ERK assay (in words)", "result": "selective for GRP120"}, {"measurement": "ERK activation for GPR120 (in words)", "result": "strongly activate ERK"}, {"measurement": "ERK/GPR120 10 μM", "result": "+++ (+++ denotes a higher value than LA)"}, {"measurement": "ERK/GPR120 100 μM", "result": "+++ (+++ denotes a higher value than LA)"}]}]}
